# Structures can show the parent of a compound that is named as a salt.
# Molecular target: TNFα trimer (Homo sapiens, UniProt P01375)
# Assay: TNFα FP Competitive Binding Assay
# Conditions: fluorescence polarization competition; 20 nM TNFα trimer, 1 nM OregonGreen488 probe; read-out: TNF IC50 (TNFα FP binding assay IC50)
# Procedure, shortened: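 Compounds, 12-point 1:3 dilutions topping at 100 μM (2.0% DMSO) or 338 μM (3.4% DMSO) final, compete with 1 nM fluorescent probe for 20 nM TNFα trimer in HEPES/NaCl/EDTA/Triton buffer. After 18-24 h incubation at 37 °C plus 1 h rt equilibration, background-subtracted polarization is read and fitted with variable slope.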
# Chain of TNFα trimer (P01375 77-233 limits assumed): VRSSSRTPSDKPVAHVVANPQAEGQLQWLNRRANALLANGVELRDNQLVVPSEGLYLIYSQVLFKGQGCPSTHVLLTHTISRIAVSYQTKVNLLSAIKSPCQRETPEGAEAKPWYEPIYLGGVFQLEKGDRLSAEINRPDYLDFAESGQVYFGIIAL
row,Compound,IC50
1,"c1ccc(C2COCc3nc4ccc(-c5cnc(N6CCOCC6)nc5)cc4n32)cc1 (centres unmarked) [Example 19, 7-(2-Morpholinopyrimidin-5-yl)-4-phenyl-3,4-dihydro-H-benzo[4,5]imidazo[2,1-c][1,4]oxazine]",< 1 µM
2,"c1ccc([C@@H]2COCc3nc4ccc(-c5cnc(N6CCOCC6)nc5)cc4n32)cc1 [Example 20, (R)-7-(2-Morpholinopyrimidin-5-yl)-4-phenyl-3,4-dihydro-1H-benzo[4,5]imidazo[2,1-c][1,4]oxazine]",10 to 100 µM
3,"O=C(O)C1CCN(c2ncc(-c3ccc4nc5n(c4c3)C(c3ccccc3)COC5)cn2)CC1 (centres unmarked) [Example 22, 1-(5-(4-Phenyl-3,4-dihydro-1H-benzo[4,5]imidazo[2,1-c][1,4]oxazin-7-yl)pyrimidin-2-yl)piperidine-4-carboxylic acid]",1 to 10 µM
4,"COc1ccccc1C1CCCc2nc3ccc(-c4ccc(C(=O)O)s4)cn3c21 (centres unmarked) [Example 23, 5-(9-(2-Methoxyphenyl)-6,7,8,9-tetrahydrobenzo[4,5]imidazo[1,2-a]pyridin-2-yl)thiophene-2-carboxylic acid]",1 to 10 µM
5,"O=C1NC[C@@H]2CN(c3ncc(-c4ccc5nc6n(c5c4)[C@@H](c4ccccc4)CC6)cn3)CCN12 [Example 24, (R)-7-(5-((R)-1-Phenyl-2,3-dihydro-1H-benzo[d]pyrrolo[1,2-a]imidazol-7-yl)pyrimidin-2-yl)hexahydroimidazo[1,5-a]pyrazin-3(2H)-one]",< 1 µM
6,"O=C1NC[C@H]2CN(c3ncc(-c4ccc5nc6n(c5c4)[C@@H](c4ccccc4)CC6)cn3)CCN12 [Example 25, (S)-7-(5-((R)-1-Phenyl-2,3-dihydro-1H-benzo[d]pyrrolo[1,2-a]imidazol-7-yl)pyrimidin-2-yl)hexahydroimidazo[1,5-a]pyrazin-3(2H)-one]",< 1 µM
7,"O=C1NC[C@@H]2CN(c3ncc(-c4ccc5nc6n(c5c4)[C@@H](c4ccccc4)COC6)cn3)CCN12 [Example 26, (R)-7-(5-((S)-4-Phenyl-3,4-dihydro-1H-benzo[4,5]imidazo[2,1-c][1,4]oxazin-7-yl)pyrimidin-2-yl)hexahydroimidazo[1,5-a]pyrazin-3(2H)-one]",< 1 µM
8,"O=C1NC[C@H]2CN(c3ncc(-c4ccc5nc6n(c5c4)[C@@H](c4ccccc4)COC6)cn3)CCN12 [Example 27, (S)-7-(5-((S)-4-Phenyl-3,4-dihydro-1H-benzo[4,5]imidazo[2,1-c][1,4]oxazin-7-yl)pyrimidin-2-yl)hexahydroimidazo[1,5-a]pyrazin-3(2)-one]",< 1 µM
9,"CC(C)(O)c1ncc(-c2ccc3nc4n(c3c2)C(c2ccccn2)CC4)cn1 (centres unmarked) [Example 28, 2-(5-(1-(Pyridin-2-yl)-2,3-dihydro-1H-benzo[d]pyrrolo[1,2-a]imidazol-7-yl)pyrimidin-2-yl)propan-2-ol]",1 to 10 µM
10,"CC(C)(O)c1ncc(-c2ccc3nc4n(c3n2)C(c2ccccn2)CC4)cn1 (centres unmarked) [Example 29, 2-(5-(8-(Pyridin-2-yl)-7,8-dihydro-6H-pyrrolo[2′,1′:2,3]imidazo[4,5-b]pyridin-2-yl)pyrimidin-2-yl)propan-2-ol]",1 to 10 µM
11,"O=C1NC[C@H]2CN(c3ncc(-c4ccc5nc6n(c5n4)[C@@H](c4ccccc4)CC6)cn3)CCN12 [Example 31, (S)-7-(5-((R)-8-Phenyl-7,8-dihydro-6H-pyrrolo[2′,1′:2,3]imidazo[4,5-b]pyridin-2-yl)pyrimidin-2-yl)hexahydroimidazo[1,5-a]pyrazin-3(2H)-one]",< 1 µM
12,"COc1ccccc1C1COCc2nc3ccc(-c4cnc(C(C)(C)O)nc4)cn3c21 (centres unmarked) [Example 32, 2-(5-(4-(2-Methoxyphenyl)-3,4-dihydro-1H-pyrano[3′,4′:4,5]imidazo[1,2-a]pyridin-7-yl)pyrimidin-2-yl)propan-2-ol]",< 1 µM
13,"OC1CCN(c2ncc(-c3ccc4nc5c(n4n3)C(c3ccccc3)CC5)cn2)CC1 (centres unmarked) [Example 33, 1-(5-(8-Phenyl-7,8-dihydro-6H-cyclopenta[4,5]imidazo[1,2-b]pyridazin-2-yl)pyrimidin-2-yl)piperidin-4-ol]",< 1 µM
14,"COc1ccccc1C1CCc2nc3ccc(-c4cnc(N5CCN6C(=O)NCC6C5)nc4)nn3c21 (centres unmarked) [Example 34, 7-(5-(8-(2-Methoxyphenyl)-7,8-dihydro-6H-cyclopenta[4,5]imidazo[1,2-b]pyridazin-2-yl)pyrimidin-2-yl)hexahydroimidazo[1,5-a]pyrazine-3(2H)-one]",< 1 µM
15,"O=C1NCC2CN(c3ncc(-c4ccc5nc6n(c5c4)C(c4ccccc4C(F)(F)F)COC6)cn3)CCN12 (centres unmarked) [Example 35, 7-(5-(4-(2-(Trifluoromethyl)phenyl)-3,4-dihydro-H-benzo[4,5]imidazo[2,1-c][1,4]oxazin-7-yl)pyrimidin-2-yl)hexahydroimidazo[1,5-a]pyrazin-3(2H)-one]",< 1 µM
16,"NC1CC2(CCN(c3ncc(-c4ccc5nc6n(c5c4)[C@@H](c4ccccc4)COC6)cn3)CC2)C1 [Example 36, (S)-7-(5-(4-Phenyl-3,4-dihydro-1H-benzo[4,5]imidazo[2,1-c][1,4]oxazin-7-yl)pyrimidin-2-yl)-7-azaspiro[3.5]nonan-2-amine]",< 1 µM

row,Compound,IC50
1,c1ccc([C@H]2COCc3nc4ccc(-c5cnc(N6[C@H]7CCC[C@@H]6CNCC7)nc5)cc4n32)cc1 [Example 37],< 1 µM
2,"CC(C)(O)c1ncc(-c2ccc3nc4n(c3c2)C(C2CCOCC2)CC4)cn1 (centres unmarked) [Example 38, 2-(5-(1-(Tetrahydro-2H-pyran-4-yl)-2,3-dihydro-1H-benzo[d]pyrrolo[1,2-a]imidazol-7-yl)pyrimidin-2-yl)propan-2-ol]",10 to 100 µM
3,"CC(C)(O)c1ncc(-c2ccc3nc4n(c3n2)C(C)(c2ccccc2)CC4)cn1 (centres unmarked) [Example 39, 2-(5-(8-Methyl-8-phenyl-7,8-dihydro-6H-pyrrolo[2′,1′:2,3]imidazo[4,5-b]pyridin-2-yl)pyrimidin-2-yl)propan-2-ol]",< 1 µM
4,"OC[C@H]1CCCN1c1ncc(-c2ccc3nc4n(c3n2)[C@@H](c2ccccc2)CC4)cn1 [Example 40, ((R)-1-(5-((R)-8-Phenyl-7,8-dihydro-6H-pyrrolo[2′,1′:2,3]imidazo[4,5-b]pyridin-2-yl)pyrimidin-2-yl)pyrrolidin-2-yl)methanol]",1 to 10 µM
5,"CC(=O)N1CCN(c2ncc(-c3ccc4nc5n(c4n3)[C@@H](c3ccccc3)CC5)cn2)C[C@H]1C [Example 41, 1-((R)-2-Methyl-4-(5-((R)-8-phenyl-7,8-dihydro-6H-pyrrolo[2′,1′:2,3]imidazo[4,5-b]pyridin-2-yl)pyrimidin-2-yl)piperazin-1-yl)ethanone]",< 1 µM
6,"CC(=O)N1CCN(c2ncc(-c3ccc4nc5n(c4n3)[C@@H](c3ccccc3)CC5)cn2)C[C@@H]1C [Example 42, 1-((S)-2-Methyl-4-(5-((R)-8-phenyl-7,8-dihydro-6H-pyrrolo[2′,1′:2,3]imidazo[4,5-b]pyridin-2-yl)pyrimidin-2-yl)piperazin-1-yl)ethanone]",< 1 µM
7,"C[C@@H]1CN(c2ncc(-c3ccc4nc5n(c4n3)[C@@H](c3ccccc3)CC5)cn2)CCN1C(=O)CO [Example 43, 2-Hydroxy-1-((R)-2-methyl-4-(5-((R)-8-phenyl-7,8-dihydro-6H-pyrrolo[2′,1′:2,3]imidazo[4,5-b]pyridin-2-yl)pyrimidin-2-yl)piperazin-1-yl)ethanone]",< 1 µM
8,"CC(=O)N1CCN(c2ncc(-c3ccc4nc5n(c4n3)[C@@H](c3cccc(CO)c3)CC5)cn2)C[C@H]1C [Example 44, 1-((R)-4-(5-((R)-8-(3-(Hydroxymethyl)phenyl)-7,8-dihydro-6H-pyrrolo[2′,1′:2,3]imidazo[4,5-b]pyridin-2-yl)pyrimidin-2-yl)-2-methylpiperazin-1-yl)ethanone]",< 1 µM
9,"CC(C)[C@H](N)C(=O)OC1CCN(c2ncc(-c3ccc4nc5n(c4n3)[C@@H](c3ccccc3)CC5)cn2)CC1 [Example 46, (S)-1-(5-((R)-8-Phenyl-7,8-dihydro-6H-pyrrolo[2′,1′:2,3]imidazo[4,5-b]pyridin-2-yl)pyrimidin-2-yl)piperidin-4-yl 2-amino-3-methylbutanoate]",1 to 10 µM
10,"O=P(O)(O)OC1CCN(c2ncc(-c3ccc4nc5n(c4n3)[C@@H](c3ccccc3)CC5)cn2)CC1 [Example 46.1, (R)-1-(5-(8-Phenyl-7,8-dihydro-6H-pyrrolo[2′,1′:2,3]imidazo[4,5-b]pyridin-2-yl)pyrimidin-2-yl)piperidin-4-yl dihydrogen phosphate hydrochloride]",1 to 10 µM
11,"c1ccc([C@H]2CCc3nc4ccc(-c5ccnc(OC6CCOCC6)c5)nc4n32)cc1 [Example 47, (R)-8-Phenyl-2-(2-((tetrahydro-2H-pyran-4-yl)oxy)pyridin-4-yl)-7,8-dihydro-6H-pyrrolo[2′,1′:2,3]imidazo[4,5-b]pyridine]",< 1 µM
12,"c1ccc([C@H]2CCc3nc4ccc(-c5ccnc(OC6CCCOC6)c5)nc4n32)cc1 (stereo partly drawn) [Example 48, (8R)-8-Phenyl-2-(2-((tetrahydro-2H-pyran-3-yl)oxy)pyridin-4-yl)-7,8-dihydro-6H-pyrrolo[2′,1′:2,3]imidazo[4,5-b]pyridine]",1 to 10 µM
13,c1ccc([C@H]2CCc3nc4ccc(-c5ccnc(O[C@H]6CCNC6)c5)nc4n32)cc1 [Example 49],1 to 10 µM
14,"OC1CCN(c2ncc(-c3ccc4nc5n(c4n3)C3(COC5)COc4ccccc43)cn2)CC1 (centres unmarked) [Example 50, 1-(5-(6′,8′-Dihydro-2H-spiro[benzofuran-3,9′-pyrido[3′,2′:4,5]imidazo[2,1-c][1,4]oxazin]-2′-yl)pyrimidin-2-yl)piperidin-4-ol]",< 1 µM
15,"c1ccc2c(c1)OCC21COCc2nc3ccc(-c4cnc(N5CCOCC5)nc4)nc3n21 (centres unmarked) [Example 51, 2′-(2-Morpholinopyrimidin-5-yl)-6′,8′-dihydro-2H-spiro[benzofuran-3,9′-pyrido[3′,2′:4,5]imidazo[2,1-c][1,4]oxazine]]",< 1 µM
16,OC1CCN(c2ncc(-c3ccc4nc5n(c4n3)C3(CCc4ccccc43)COC5)cn2)CC1 (centres unmarked) [Example 52],< 1 µM

# — patent US20180179198A1, “TRICYCLIC MODULATORS OF TNF SIGNALING” (AbbVie Inc., priority 2015, published 2018)
